What all share (assay): NCI anticancer screen, dose series, 48 h
Test [1] relates to UACC-257 melanoma.
The subject of test [2] is CCRF-CEM leukemia.
The subject of test [3] is SK-OV-3 ovarian.
Test [4] relates to U251 CNS.
The test system of test [5] is HL-60(TB) leukemia.
In test [6] the test system is NCI-H23 lung.
Test [7] deals with LOX IMVI melanoma.
The test system of test [8] is SK-MEL-2 melanoma.
The subject of test [9] is RPMI-8226 leukemia.
In test [10] the test system is SNB-19 CNS.

For eleven compounds, GI50 and TGI results are on record in PubChem BioAssay (NCI).

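In this assay, cells in 96-well plates receive the compound at five concentrations for 48 hours. Endpoints are linearly interpolated between the surrounding concentrations. GI50 is the concentration that inhibits growth by half. TGI: concentration producing complete growth inhibition.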

As for `COc1cc(/C=C\c2cc(/C=C\c3ccc(O)c(OC)c3)n(C(=O)CNc3ccc(Cl)cc3)n2)ccc1O`, the GI50 in test [1] is 5.17 µM; in test [2], 1.49 µM; in test [3], 3.65 µM; in test [4], 2.94 µM; in test [5] it was 2.07 µM; in test [6], 3.35 µM. Also, the GI50 in test [7] was 2.17 µM; in [8], 3.97 µM; in test [9] it was 1.88 µM; in [10] it was 3.18 µM. Further, the TGI in test [1] came out at 17.7 µM; in [2], 5.45 µM; in [3], 13 µM; in [4], 11.8 µM; in test [5] it was 6.68 µM; in test [6], 15.8 µM. Besides, the TGI is 6.95 µM in [7], 18.8 µM in [8], 6.36 µM in test [9] and 14.1 µM in [10].

On to `OC1CCC[C@@H]1Sc1ccccc1` (stereo partly drawn), for which the TGI in test [1], in test [2], in test [3], in [4], in [5] and in [6] was > 100 µM in each case. The TGI in [7], in [8], in [9] and in [10] was > 100 µM in each case.

On to `O=C(NNC(=S)Nc1ccccc1)c1ccccn1`, for which the GI50 in test [1] is 2.53 µM; in test [2] it was 2.18 µM; in test [3] it was 7.33 µM; in [4], 1.49 µM; in test [5] it was 2.58 µM; in [6] it was 6.95 µM. Also, the GI50 in [7] is 2.31 µM; in test [8], 9.74 µM; in test [9], 2.69 µM; in test [10], 2.95 µM. Further, the TGI is 21.2 µM in test [1]; 25.3 µM in [2]; > 100 µM in [3]; > 100 µM in test [4]; 7.85 µM in test [5]; > 100 µM in test [6]. In addition, the TGI is > 100 µM in test [7], > 100 µM in test [8], 38.4 µM in test [9] and > 100 µM in test [10].

Turning to `COc1cc2ncn(-c3cc(OCc4ccccc4C(F)(F)F)c(C(C)=O)s3)c2cc1OC`, the GI50 in [1], in test [2], in test [3], in test [4], in test [5] and in [6] was > 25 µM throughout. The GI50 in [7], in test [8], in [9] and in test [10] was > 25 µM throughout. The TGI in test [1], in [2], in [3], in test [4], in test [5] and in test [6] was > 25 µM each time. The TGI in test [7], in test [8], in test [9] and in test [10] was > 25 µM in each case.

For `C=C1NC(=O)C(CC(C(=O)C(=O)Nc2c(C)cccc2C(C)(C)C)C(=O)c2ccc3ccccc3c2)C(=O)N1` (stereo not drawn), the TGI in test [1], in test [2], in test [3], in test [4], in [5] and in test [6] was > 100 µM each time. The TGI in test [7], in test [8], in test [9] and in test [10] was > 100 µM in each case.

With `C[C@@H]1CC[C@@H]2[C@@H](C)C[C@H]3[C@@H]4C(C)(C)OC(=O)[C@]4(C)C(=O)[C@@]23C1=O`, the TGI in test [1], in [2], in [3], in [4], in test [5] and in test [6] was > 100 µM in each case. For the same compound, the TGI in test [7], in test [8], in test [9] and in test [10] was > 100 µM throughout. Moreover, the GI50 in test [4] is 31.9 µM; in test [8] it was > 100 µM.

For the compound `CC(C)(C)c1ccc(O)c(CN(Cc2cc(C(C)(C)C)ccc2O)C2CCCCC2)c1`, the TGI in [1] was found to be 37.4 µM; in [2], 99.9 µM; in [3] it was 47.8 µM; in test [4], 30.4 µM; in test [5], 33.3 µM; in test [6], 48.7 µM. Also, the TGI is 24.1 µM in test [7], 35.4 µM in test [8], 25.1 µM in test [9] and 41 µM in test [10]. Also, the GI50 in test [5] is 13.9 µM.

Turning to `CC(O)CN1c2ccccc2Sc2ccc(Cl)cc21` (stereo not drawn), the TGI in test [1], in test [2], in test [3], in test [4], in test [5] and in test [6] was > 10 µM throughout. Besides, the TGI in [7], in test [8], in test [9] and in [10] was > 10 µM in each case.

Turning to `CN(O)C(=S)c1ccccc1`, the TGI is 57.8 µM in [1]; 4.99 µM in test [2]; > 95.5 µM in test [3]; > 100 µM in [4]; 7.04 µM in [5]; 19.8 µM in test [6]. Further, the TGI in test [7] is 7.76 µM; in test [8] it was > 33.1 µM; in test [9], 1.68 µM; in [10] it was > 100 µM.

Turning to `COC(=O)C(=O)C(C(=O)C=C(C)C)C(=O)C(=O)Nc1nc2ccc([N+](=O)[O-])cc2s1` (stereo not drawn), the TGI in test [1], in test [2], in test [3], in [4], in test [5] and in test [6] was > 100 µM each time. The TGI in [7], in test [8], in test [9] and in test [10] was > 100 µM in each case.

Consider `COC(=O)C(=O)C(C(=O)C(=O)Nc1ccc(C)cc1)c1nc2ccc(C(=O)c3ccccc3)cc2[nH]c1=O` (stereo not drawn), for which the TGI in [1], in [2], in test [3], in [4], in test [5] and in test [6] was > 100 µM in each case. Besides, the TGI in test [7], in test [8], in test [9] and in test [10] was > 100 µM in each case.
